Test results reported in patent US20240216444A1, “DESIGNED BACTERIAL COMPOSITIONS” (Seres Therapeutics, Inc., priority 2015, published 2024).

Tests used:
[1] = tested on: 7α-dehydroxylation of cholic acid and chenodeoxycholic acid; assay: LC-MS screen for 7α-dehydroxylation (7α-OH) activity; format: biochemical; conditions: LC-MS
[2] = tested on: bile salt hydrolase (BSH) activity on conjugated bile acids; assay: LC-MS screen for bile salt hydrolase (BSH) activity; conditions: for BSH gCA: substrate gCA; for BSH gCDCA: substrate gCDCA; for BSH t-aMCA: substrate t-aMCA; for BSH t-bMCA: substrate t-bMCA; for BSH tCA: substrate tCA; for BSH tCDCA: substrate tCDCA
Method: To conduct the assay, briefly, bacteria were grown on permissive agar media plates for 24 to 48 hours to generate sufficient biomass to carry out assays. The bacterial lawns were resuspended in PBS to create a homogenous suspension that was then used for the BSH assay. To assay for BSH activity, bacterial suspensions were incubated with two separate mixtures of four distinct conjugated bile acids, each at concentration of 150 μg/ml, for 4 hours at 37° C. under anaerobic conditions. The reaction mixture was then extracted with an equal volume of acetonitrile, spun down to pellet bacteria and the supernatant filtered through a 0.2 μM filter to generate a sample for LC-MS analysis. Bile acids were determined using an Agilent 1260 HPLC coupled to a Bruker Compact qTOF MS. Samples were run on a bidentate C18 column using an acetonitrile:water buffer system to separate bile acids which were then ionized in negative mode and identified using a qTOF-MS. BSH activity was determined by the formation of deconjugated bile acid products that were verified by comparison to known standards and quantified, if necessary, using standard curves.

[3] = tested on: HDAC enzymes (HeLa nuclear extract); assay: HDAC inhibition activity in supernatants of cultures grown in different carbon sources; conditions: 25% HDAC inhibition as cut off
Method: To determine whether the HDAC inhibition was affected by the type and level of carbon source available to a bacterial species, HDAC inhibition by supernatants derived from a selection of bacterial species used in DBCs was determined. In these experiments, bacteria were grown in a variety of carbon sources including mono-, di-, polysaccharides, and porcine mucine. Briefly, 600 μL bacterial cultures in peptone/yeast extract medium (PY) supplemented with 0.5% of the selected carbon sources were inoculated in 96 deep well plates, grown for 4 days, then the microbial cells were pelleted by centrifugation, and 15 μL of the culture medium (supernatant) was used for the HDAC assay with HeLa nuclear extract as described above. Because HDAC activity is reduced at low pH (Latham et al. 2012 Nucl Acid Res 40:4794-803) and the microbial cultures had pH as low as 5, to ensure that the final pH of the assay was not reduced by the addition of supernatant, 10 μL of a 1M Tris pH 8 solution was added per well to bring the final Tris buffer concentration to 75 mM. Thus, assays were performed with 15 μL supernatant, 10 μL 1M Tris pH 8, 25 μL of assay buffer and 50 μL of diluted HeLa nuclear extract, which were preincubated for 30 minutes prior to the addition of developing reagent. Luminescence was measured after 30 minutes.

[4] = tested on: C. difficile carbon sources; assay: Carbon source utilization, 87 carbon sources in three base media, OD600 and acid production (Example 3B); format: cell-based; set-up: key: “+” and “w” refer to “positive” and “weak” utilization of the carbon source, respectively; “+” and “w” refer to “positive” and “weak” utilization of the carbon source, respectively; conditions: for utilization of carbon source NAG: NAG (N-acetylglucosamine)
From the text: Three C. difficile strains and 12 non-C. difficile bacterial strains were profiled using a panel of carbon sources. As used herein, unless otherwise indicated, carbon sources includes all sources tested as growth substrates in the experiments herein. The three C. difficile strains were Clostridium difficile ATCC 9689, Clostridium difficile ATCC 43593, and Clostridium difficile ATCC 43255, all of which are available from the American Type Culture Collection (ATCC).
Growth of the strains was tested on 87 different carbon sources in a 96-well plate format. The panel contained 34 carbon sources reported to be utilized by C. difficile in the literature (Hafiz and Oakley. 1976 J Med Microbiol 9:129-36; Wilson and Perini. 1988 Infection and Immunity 56:2610-14; Bergey and Holt. Bergey's Manual of Determinative Bacteriology. Baltimore: Williams & Wilkins, 1994; Sebaihia et al. 2006 Nature Genetics 38:779-786) including amino acids, mono-, di-, tri- and polysaccharides, glucoside and sugar alcohols. Carbon sources were added at 0.5% into three different base media (Base medium 1 SSNC composition: beef extract 1 g/L, yeast extract 2 g/L, bacto soytone 6 g/L, NaCl 4 g/L, KH2PO4 5.44 g/L, MgSO4 2 mM, CaCl2 1 mM, MnCl2 0.1 mM, cysteine hydrochloride 0.25 g/L, hemin 10 mg/L, menadione 1 mg/L, MOPS 6.3 g/L, pH 7; Base medium 2 SPOSCR composition: beef extract 1 g/L, yeast extract 2 g/L, bacto soytone 6 g/L, NaCl 4 g/L, KH2PO4 5.44 g/L, MgSO4 2 mM, CaCl2) 1 mM, MnCl2 0.1 mM, cysteine hydrochloride 0.25 g/L, hemin 10 mg/L, menadione 1 mg/L, MOPS 8.4 g/L, NaHCO3 0.4%, pH 7; Base medium 3 YCFA: casitone 10 g/L, yeast extract 2.5 g/L, cysteine hydrochloride 1 g/L, hemin 10 mg/L, ATCC vitamin solution 10 mL/L, ATCC trace element solution 10 mL/L, K2HPO4 0.45 g/L, KH2PO4 0.45 g/L, (NH4)2SO4 0.9 g/L, MgSO4×7H2O 90 mg/L, CaCl2) 90 mg/L, acetic acid 33 mM, propionic acid 9 mM, isobutyric acid 1 mM, isovaleric acid 1 mM, valeric acid 1 mM, pH 7).
Positive growth was scored by measuring optical density at 600 nm and comparing it to growth in base medium without an added carbon source. For two, base media acid production was also scored by measuring optical density at 558 nm of pH-indicator phenol red mixed with spent medium from each culture.

[5] = tested on: HSDH activity (7-, 3- or 12-hydroxyl groups) on cholic, chenodeoxycholic, deoxycholic and lithocholic acid; assay: LC-MS screen for hydroxysteroid dehydrogenase (HSDH) activity; format: biochemical; conditions: LC-MS
[6] = SCFA profile of bacterial culture supernatants by GC-MS; conditions: GC-MS; fucose as carbon source
From the text: The same bacterial culture supernatants used for HDAC inhibition assays described supra were submitted to GC-MS analysis to determine which SCFAs underlie the observed inhibition of HDAC. The method employed (MSOmics, Denmark) measures formate, acetate, propionate, butyrate, isobutyrate (2-methyl-propionate), isovalerate (3-methyl-butyrate), valerate (pentanoate), 4-methyl-pentanoate, caproate (hexanoate), and heptanoate. […] Numbers in Table 11 indicate detected SCFA concentration. B=butyrate; P=propionate; IB=isobutyrate, and IV=isovalerate.

| Substance | 7a Dehydrox CA ([1]; substrate CA) | 7a Dehydrox CDCA ([1]; substrate CDCA) | BSH gCA [2] | BSH gCDCA [2] | BSH t-aMCA [2] | BSH t-bMCA [2] | BSH tCA [2] | BSH tCDCA [2] | HDAC inhibition when alternative nutrient sources are tested [3] | utilization of carbon source Citrus pectin [4] | utilization of carbon source NAG [4] | utilization of carbon source cysteine [4] | utilization of carbon source fructose [4] | utilization of carbon source glucose [4] | utilization of carbon source mannose [4] | utilization of carbon source oxalate [4] | utilization of carbon source serine [4] | utilization of carbon source sucrose [4] | utilization of carbon source trehalose [4] | HSDH 3a [5] | also measured |
| --- | --- | --- | --- | --- | --- | --- | --- | --- | --- | --- | --- | --- | --- | --- | --- | --- | --- | --- | --- | --- | --- |
| Clostridium bolteae | − | − | + (‘+’ indicates greater than 50-fold increase in levels of product bile acid, suggesting strong activity) | + (‘+’ indicates greater than 50-fold increase in levels of product bile acid, suggesting strong activity) | + (‘+’ indicates greater than 50-fold increase in levels of product bile acid, suggesting strong activity) | + (‘+’ indicates greater than 50-fold increase in levels of product bile acid, suggesting strong activity) | + (‘+’ indicates greater than 50-fold increase in levels of product bile acid, suggesting strong activity) | + (‘+’ indicates greater than 50-fold increase in levels of product bile acid, suggesting strong activity) | positive | + | + | w | + | + | + | + | w | + | + | + (‘+’ indicates greater than 50-fold increase in levels of product bile acid, suggesting strong activity) | utilization of carbon source melezitose ([4]; melezitose): +; utilization of carbon source propanediol ([4]; propanediol): +; utilization of carbon source rhamnose ([4]; rhamnose): +; utilization of carbon source ribose ([4]; ribose): +; utilization of carbon source sialic acid ([4]; sialic acid): +; utilization of carbon source tryptophan ([4]; tryptophan): w; utilization of carbon source xylose ([4]; xylose): +; HSDH 7a [5]: −; HSDH 12a [5]: −; propionate production [6]: produced propionate but only when supplied with fucose as a carbon source |
| Clostridium disporicum | − | − | − | +/− (‘+/−’ indicates ≤50-fold change in product bile acid levels, suggesting weak activity) | + (‘+’ indicates greater than 50-fold increase in levels of product bile acid, suggesting strong activity) | + (‘+’ indicates greater than 50-fold increase in levels of product bile acid, suggesting strong activity) | +/− (‘+/−’ indicates ≤50-fold change in product bile acid levels, suggesting weak activity) | + (‘+’ indicates greater than 50-fold increase in levels of product bile acid, suggesting strong activity) | positive | + | + | w | + | + | + | w | w | + | + | − | 7a Dehydrox CDCA ([1]; substrate chenodeoxycholic acid): −; 7a Dehydrox CA ([1]; substrate cholic acid): −; utilization of carbon source Apple pectin ([4]; Apple pectin): w; utilization of carbon source arbutin ([4]; arbutin): +; utilization of carbon source cellobiose ([4]; cellobiose): +; utilization of carbon source cyclodextrin ([4]; cyclodextrin): +; utilization of carbon source esculin ([4]; esculin): +; utilization of carbon source glutamine ([4]; glutamine): w; utilization of carbon source glycogen ([4]; glycogen): +; utilization of carbon source salicin ([4]; salicin): +; utilization of carbon source starch ([4]; starch): +; utilization of carbon source threonine ([4]; threonine): w; HSDH 7a [5]: + (‘+’ indicates greater than 50-fold increase in levels of product bile acid, suggesting strong activity); HSDH 12a [5]: +/− (‘+/−’ indicates ≤50-fold change in product bile acid levels, suggesting weak activity); HSDH 3a ([5]; 3a-HSDH): −; HSDH 7a ([5]; 7a-HSDH): + (‘+’ indicates greater than 50-fold increase in levels of product bile acid, suggesting strong activity); HSDH 12a ([5]; 12a-HSDH): −; propionate production [6]: produced propionate but only when supplied with fucose as a carbon source |
